Measurements reported in the supplement of paper PMC10307832.

Columns and labels:
Test in all cases: relative viability (nuclei count vs DMSO), 5 days (fraction); higher = more cells survive
[1] = compound: C[C@]1(O)C[C@@H](c2nc(-c3ccc4ccc(-c5ccccc5)nc4c3)c3c(N)nccn32)C1 [Linsitinib] + NC(=O)Nc1cc(-c2cccc(F)c2)sc1C(=O)N[C@H]1CCCNC1 [AZD7762] (partner 0.2 µM)
Method in brief: (§1)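 Each reported value is a median over duplicate plates. It expresses relative viability: treated-well nuclei count divided by vehicle-well nuclei count. Lung cancer cell lines in 1536-well plates were dosed by pin tool a day after seeding, alone with one drug or with a fixed anchor-drug dose plus five library-drug doses (not always all listed) in √10 steps, and nuclei were counted after 5 days.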

[2] = compound: C[C@]1(O)C[C@@H](c2nc(-c3ccc4ccc(-c5ccccc5)nc4c3)c3c(N)nccn32)C1 [Linsitinib] + Cc1nc(NC(=O)N2CCC[C@H]2C(N)=O)sc1-c1ccnc(C(C)(C)C(F)(F)F)c1 [Alpelisib] (partner 2 µM)
Method in brief: as §1

[3] = compound: C[C@]1(O)C[C@@H](c2nc(-c3ccc4ccc(-c5ccccc5)nc4c3)c3c(N)nccn32)C1 [Linsitinib] + CC1(C)CCC(c2ccc(Cl)cc2)=C(CN2CCN(c3ccc(C(=O)NS(=O)(=O)c4ccc(N[C@H](CCN5CCOCC5)CSc5ccccc5)c(S(=O)(=O)C(F)(F)F)c4)cc3)CC2)C1 [Navitoclax] (partner 0.5 µM)
Method in brief: as §1

[4] = compound: Cc1ccc(C(=O)N(CCCN)[C@@H](c2nc3cc(Cl)ccc3c(=O)n2Cc2ccccc2)C(C)C)cc1 [Ispinesib] + CC1(C)CCC(c2ccc(Cl)cc2)=C(CN2CCN(c3ccc(C(=O)NS(=O)(=O)c4ccc(N[C@H](CCN5CCOCC5)CSc5ccccc5)c(S(=O)(=O)C(F)(F)F)c4)cc3)CC2)C1 [Navitoclax] (partner 0.5 µM)
Method in brief: as §1

Cell Line: NCI-H1666
- relative viability ([1]; first compound 0.01 µM): 0.704
- relative viability ([1]; first compound 0.03162 µM): 0.834
- relative viability ([1]; first compound 0.1 µM): 0.828
- relative viability ([1]; first compound 0.3162 µM): 0.645
- relative viability ([1]; first compound 1 µM): 0.597
- relative viability ([2]; first compound 0.01 µM): 0.847
- relative viability ([2]; first compound 0.03162 µM): 0.869
- relative viability ([2]; first compound 0.1 µM): 0.769
- relative viability ([2]; first compound 0.3162 µM): 0.452
- relative viability ([2]; first compound 1 µM): 0.477
- relative viability ([3]; first compound 0.01 µM): 0.994
- relative viability ([3]; first compound 0.03162 µM): 0.867
- relative viability ([3]; first compound 0.1 µM): 0.939
- relative viability ([3]; first compound 0.3162 µM): 0.549
- relative viability ([3]; first compound 1 µM): 0.646
- relative viability ([4]; first compound 0.001 µM): 0.987
- relative viability ([4]; first compound 0.003162 µM): 0.876
- relative viability ([4]; first compound 0.01 µM): 0.945
- relative viability ([4]; first compound 0.03162 µM): 0.527
- relative viability ([4]; first compound 0.1 µM): 0.25

Cell Line: NCI-H1703
- relative viability ([1]; first compound 0.01 µM): 0.158
- relative viability ([1]; first compound 0.03162 µM): 0.142
- relative viability ([1]; first compound 0.1 µM): 0.112
- relative viability ([1]; first compound 1 µM): 0.12
- relative viability ([2]; first compound 0.01 µM): 0.363
- relative viability ([2]; first compound 0.1 µM): 0.346
- relative viability ([2]; first compound 0.3162 µM): 0.227
- relative viability ([2]; first compound 1 µM): 0.219
- relative viability ([3]; first compound 0.01 µM): 0.894
- relative viability ([3]; first compound 0.1 µM): 1.43
- relative viability ([3]; first compound 0.3162 µM): 0.924
- relative viability ([3]; first compound 1 µM): 0.932
- relative viability ([4]; first compound 0.001 µM): 1.2
- relative viability ([4]; first compound 0.003162 µM): 0.727
- relative viability ([4]; first compound 0.01 µM): 0.117
- relative viability ([4]; first compound 0.03162 µM): 0.0871
- relative viability ([4]; first compound 0.1 µM): 0.114

Cell Line: NCI-H1734
- relative viability ([1]; first compound 0.01 µM): 0.61
- relative viability ([1]; first compound 0.03162 µM): 0.534
- relative viability ([1]; first compound 0.1 µM): 0.579
- relative viability ([1]; first compound 0.3162 µM): 0.794
- relative viability ([1]; first compound 1 µM): 0.363
- relative viability ([2]; first compound 0.01 µM): 0.688
- relative viability ([2]; first compound 0.03162 µM): 0.744
- relative viability ([2]; first compound 0.1 µM): 0.65
- relative viability ([2]; first compound 0.3162 µM): 0.692
- relative viability ([2]; first compound 1 µM): 0.612
- relative viability ([3]; first compound 0.01 µM): 0.77
- relative viability ([3]; first compound 0.03162 µM): 0.865
- relative viability ([3]; first compound 0.1 µM): 0.925
- relative viability ([3]; first compound 0.3162 µM): 0.821
- relative viability ([3]; first compound 1 µM): 0.784
- relative viability ([4]; first compound 0.001 µM): 0.868
- relative viability ([4]; first compound 0.003162 µM): 0.952
- relative viability ([4]; first compound 0.01 µM): 1.04
- relative viability ([4]; first compound 0.03162 µM): 0.777
- relative viability ([4]; first compound 0.1 µM): 0.549

Cell Line: NCI-H1755
- relative viability ([1]; first compound 0.01 µM): 0.454
- relative viability ([1]; first compound 0.03162 µM): 0.421
- relative viability ([1]; first compound 0.1 µM): 0.531
- relative viability ([1]; first compound 0.3162 µM): 0.657
- relative viability ([1]; first compound 1 µM): 0.363
- relative viability ([2]; first compound 0.01 µM): 0.938
- relative viability ([2]; first compound 0.03162 µM): 0.875
- relative viability ([2]; first compound 0.1 µM): 0.961
- relative viability ([2]; first compound 0.3162 µM): 0.78
- relative viability ([2]; first compound 1 µM): 0.896
- relative viability ([3]; first compound 0.01 µM): 0.974
- relative viability ([3]; first compound 0.03162 µM): 1.04
- relative viability ([3]; first compound 0.1 µM): 0.986
- relative viability ([3]; first compound 0.3162 µM): 0.839
- relative viability ([3]; first compound 1 µM): 0.905
- relative viability ([4]; first compound 0.001 µM): 1.01
- relative viability ([4]; first compound 0.003162 µM): 1.15
- relative viability ([4]; first compound 0.01 µM): 1.09
- relative viability ([4]; first compound 0.03162 µM): 0.917
- relative viability ([4]; first compound 0.1 µM): 0.7

Cell Line: NCI-H1792
- relative viability ([1]; first compound 0.01 µM): 0.74
- relative viability ([1]; first compound 0.03162 µM): 0.684
- relative viability ([1]; first compound 0.1 µM): 0.539
- relative viability ([1]; first compound 0.3162 µM): 0.326
- relative viability ([1]; first compound 1 µM): 0.277
- relative viability ([2]; first compound 0.01 µM): 0.803
- relative viability ([2]; first compound 0.03162 µM): 0.751
- relative viability ([2]; first compound 0.1 µM): 0.615
- relative viability ([2]; first compound 0.3162 µM): 0.606
- relative viability ([2]; first compound 1 µM): 0.538
- relative viability ([3]; first compound 0.01 µM): 0.553
- relative viability ([3]; first compound 0.03162 µM): 0.597
- relative viability ([3]; first compound 0.1 µM): 0.5
- relative viability ([3]; first compound 0.3162 µM): 0.54
- relative viability ([3]; first compound 1 µM): 0.438
- relative viability ([4]; first compound 0.001 µM): 0.827
- relative viability ([4]; first compound 0.003162 µM): 0.825
- relative viability ([4]; first compound 0.01 µM): 0.594
- relative viability ([4]; first compound 0.03162 µM): 0.299
- relative viability ([4]; first compound 0.1 µM): 0.516

Cell Line: NCI-H1793
- relative viability ([1]; first compound 0.01 µM): 0.577
- relative viability ([1]; first compound 0.03162 µM): 0.559
- relative viability ([1]; first compound 0.1 µM): 0.39
- relative viability ([1]; first compound 0.3162 µM): 0.352
- relative viability ([1]; first compound 1 µM): 0.169
- relative viability ([2]; first compound 0.01 µM): 0.71
- relative viability ([2]; first compound 0.03162 µM): 0.734
- relative viability ([2]; first compound 0.1 µM): 0.738
- relative viability ([2]; first compound 0.3162 µM): 0.615
- relative viability ([2]; first compound 1 µM): 0.738
- relative viability ([3]; first compound 0.01 µM): 0.374
- relative viability ([3]; first compound 0.03162 µM): 0.353
- relative viability ([3]; first compound 0.1 µM): 0.469
- relative viability ([3]; first compound 0.3162 µM): 0.322
- relative viability ([3]; first compound 1 µM): 0.425
- relative viability ([4]; first compound 0.001 µM): 0.464
- relative viability ([4]; first compound 0.003162 µM): 0.729
- relative viability ([4]; first compound 0.01 µM): 0.382
- relative viability ([4]; first compound 0.03162 µM): 0.394
- relative viability ([4]; first compound 0.1 µM): 0.405

Cell Line: NCI-H1915
- relative viability ([1]; first compound 0.01 µM): 0.661
- relative viability ([1]; first compound 0.03162 µM): 0.641
- relative viability ([1]; first compound 0.1 µM): 0.785
- relative viability ([1]; first compound 0.3162 µM): 0.748
- relative viability ([1]; first compound 1 µM): 0.538
- relative viability ([2]; first compound 0.01 µM): 1.08
- relative viability ([2]; first compound 0.03162 µM): 1.15
- relative viability ([2]; first compound 0.1 µM): 1.14
- relative viability ([2]; first compound 0.3162 µM): 0.913
- relative viability ([2]; first compound 1 µM): 0.878
- relative viability ([3]; first compound 0.01 µM): 0.813
- relative viability ([3]; first compound 0.03162 µM): 0.811
- relative viability ([3]; first compound 0.1 µM): 0.81
- relative viability ([3]; first compound 0.3162 µM): 0.681
- relative viability ([3]; first compound 1 µM): 0.781
- relative viability ([4]; first compound 0.001 µM): 0.84
- relative viability ([4]; first compound 0.003162 µM): 0.804
- relative viability ([4]; first compound 0.01 µM): 0.778
- relative viability ([4]; first compound 0.03162 µM): 0.759
- relative viability ([4]; first compound 0.1 µM): 0.566

Cell Line: NCI-H1944
- relative viability ([1]; first compound 0.01 µM): 0.469
- relative viability ([1]; first compound 0.03162 µM): 0.455
- relative viability ([1]; first compound 0.1 µM): 0.547
- relative viability ([1]; first compound 0.3162 µM): 0.478
- relative viability ([1]; first compound 1 µM): 0.266
- relative viability ([2]; first compound 0.01 µM): 0.753
- relative viability ([2]; first compound 0.03162 µM): 0.962
- relative viability ([2]; first compound 0.1 µM): 0.865
- relative viability ([2]; first compound 0.3162 µM): 0.918
- relative viability ([2]; first compound 1 µM): 0.801
- relative viability ([3]; first compound 0.01 µM): 1.02
- relative viability ([3]; first compound 0.03162 µM): 1.1
- relative viability ([3]; first compound 0.1 µM): 1.04
- relative viability ([3]; first compound 0.3162 µM): 0.93
- relative viability ([3]; first compound 1 µM): 0.917
- relative viability ([4]; first compound 0.001 µM): 0.994
- relative viability ([4]; first compound 0.003162 µM): 1.09
- relative viability ([4]; first compound 0.01 µM): 1.02
- relative viability ([4]; first compound 0.03162 µM): 0.785
- relative viability ([4]; first compound 0.1 µM): 0.806
